This experiment has as its system rabbit platelets. Kind of experiment: Platelet aggregation study: anti-aggregating effect on platelets activated with collagen. The experiment is classed as cell-based. The note with it: Oryctolagus cuniculus, 0.05 h, collagen (2 μl/ml), 37° C., 3 minutes incubation, aggregometer, 1000 rpm, read-out: IC50 (concentration of antagonist necessary to produce 50% inhibition of the aggregating responses to collagen). On the procedure:
The study is carried out on rabbit platelets. […] The plasma rich in platelets (PRP) is obtained by centrifuging (20° C.) at 250 g for 20 minutes. The PRP is centrifuged again (1000 g) for 15 minutes and the platelet sediment is again suspended in a saline solution buffered with tris(hydroxymethyl)aminomethane, containing gelatin (0.2%). After centrifuging again (1000 g; 15 min.), the sediment is again suspended in a physiological solution and stored at room temperature.
The anti-aggregating effect of the products is examined on platelets activated with collagen (2 μl/ml). The platelet aggregation is carried out at 37° C. in siliconised glass tubes using an aggregometer (Coultronics). The platelets are stirred at 1000 rpm. To test the antagonist effect, the PRP is incubated for 3 minutes at 37° C. with the substance to be tested. The collagen is then added (2 μl/ml).

Consider `CCCCCC(O)c1cccc(/C=C\CCCC(=O)O)n1` (centres unmarked) [Example 18, Sodium (5Z)-6-[6-(1-hydroxyhex-1-yl)pyrid-2-yl]hex-5-enoate], for which the IC50 was found to be 30 µM.

For the molecule `CCCCCC(O)c1cccc(CCCCCC(=O)O)c1` (centres unmarked) [Example 15, Sodium 6-[3-(1-hydroxyhexyl)phenyl]hexanoate], the IC50 was found to be 21 µM.

In the case of `CCCCC/C=C\CC(O)c1cccc(/C=C\CCCC(=O)O)c1` (centres unmarked) [Example 26, Sodium (5Z)-6-{3-[(3Z)-(1-hydroxynon-3-en-1-yl)]phenyl}hex-5-enoate], the IC50 amounted to 1.8 µM.

Consider `CCCCCC#CCC(O)c1cccc(/C=C\CCCC(=O)O)c1` (centres unmarked) [Example 4], for which the IC50 stood at 2.2 µM.

For the molecule `CCCCCC(O)c1cccc(/C=C\CCCC(=O)O)c1` (centres unmarked) [Example 12, Sodium (5Z)-6-[3-(1-hydroxyhex-1-yl)phenyl]hex-5-enoate], the IC50 was found to be 20 µM.

Values taken from US5599975A, “Cyclised analogues of fatty acid metabolites” (Adir Et Compagnie, priority 1993, dated 1997).
